The source of these data is patent US8835472B2, “Compounds, pharmaceutical compositions and uses thereof” (Boehringer Ingelheim International GmbH, priority 2010, dated 2014).

Sequence of human ACC2 (O00763 129-2458): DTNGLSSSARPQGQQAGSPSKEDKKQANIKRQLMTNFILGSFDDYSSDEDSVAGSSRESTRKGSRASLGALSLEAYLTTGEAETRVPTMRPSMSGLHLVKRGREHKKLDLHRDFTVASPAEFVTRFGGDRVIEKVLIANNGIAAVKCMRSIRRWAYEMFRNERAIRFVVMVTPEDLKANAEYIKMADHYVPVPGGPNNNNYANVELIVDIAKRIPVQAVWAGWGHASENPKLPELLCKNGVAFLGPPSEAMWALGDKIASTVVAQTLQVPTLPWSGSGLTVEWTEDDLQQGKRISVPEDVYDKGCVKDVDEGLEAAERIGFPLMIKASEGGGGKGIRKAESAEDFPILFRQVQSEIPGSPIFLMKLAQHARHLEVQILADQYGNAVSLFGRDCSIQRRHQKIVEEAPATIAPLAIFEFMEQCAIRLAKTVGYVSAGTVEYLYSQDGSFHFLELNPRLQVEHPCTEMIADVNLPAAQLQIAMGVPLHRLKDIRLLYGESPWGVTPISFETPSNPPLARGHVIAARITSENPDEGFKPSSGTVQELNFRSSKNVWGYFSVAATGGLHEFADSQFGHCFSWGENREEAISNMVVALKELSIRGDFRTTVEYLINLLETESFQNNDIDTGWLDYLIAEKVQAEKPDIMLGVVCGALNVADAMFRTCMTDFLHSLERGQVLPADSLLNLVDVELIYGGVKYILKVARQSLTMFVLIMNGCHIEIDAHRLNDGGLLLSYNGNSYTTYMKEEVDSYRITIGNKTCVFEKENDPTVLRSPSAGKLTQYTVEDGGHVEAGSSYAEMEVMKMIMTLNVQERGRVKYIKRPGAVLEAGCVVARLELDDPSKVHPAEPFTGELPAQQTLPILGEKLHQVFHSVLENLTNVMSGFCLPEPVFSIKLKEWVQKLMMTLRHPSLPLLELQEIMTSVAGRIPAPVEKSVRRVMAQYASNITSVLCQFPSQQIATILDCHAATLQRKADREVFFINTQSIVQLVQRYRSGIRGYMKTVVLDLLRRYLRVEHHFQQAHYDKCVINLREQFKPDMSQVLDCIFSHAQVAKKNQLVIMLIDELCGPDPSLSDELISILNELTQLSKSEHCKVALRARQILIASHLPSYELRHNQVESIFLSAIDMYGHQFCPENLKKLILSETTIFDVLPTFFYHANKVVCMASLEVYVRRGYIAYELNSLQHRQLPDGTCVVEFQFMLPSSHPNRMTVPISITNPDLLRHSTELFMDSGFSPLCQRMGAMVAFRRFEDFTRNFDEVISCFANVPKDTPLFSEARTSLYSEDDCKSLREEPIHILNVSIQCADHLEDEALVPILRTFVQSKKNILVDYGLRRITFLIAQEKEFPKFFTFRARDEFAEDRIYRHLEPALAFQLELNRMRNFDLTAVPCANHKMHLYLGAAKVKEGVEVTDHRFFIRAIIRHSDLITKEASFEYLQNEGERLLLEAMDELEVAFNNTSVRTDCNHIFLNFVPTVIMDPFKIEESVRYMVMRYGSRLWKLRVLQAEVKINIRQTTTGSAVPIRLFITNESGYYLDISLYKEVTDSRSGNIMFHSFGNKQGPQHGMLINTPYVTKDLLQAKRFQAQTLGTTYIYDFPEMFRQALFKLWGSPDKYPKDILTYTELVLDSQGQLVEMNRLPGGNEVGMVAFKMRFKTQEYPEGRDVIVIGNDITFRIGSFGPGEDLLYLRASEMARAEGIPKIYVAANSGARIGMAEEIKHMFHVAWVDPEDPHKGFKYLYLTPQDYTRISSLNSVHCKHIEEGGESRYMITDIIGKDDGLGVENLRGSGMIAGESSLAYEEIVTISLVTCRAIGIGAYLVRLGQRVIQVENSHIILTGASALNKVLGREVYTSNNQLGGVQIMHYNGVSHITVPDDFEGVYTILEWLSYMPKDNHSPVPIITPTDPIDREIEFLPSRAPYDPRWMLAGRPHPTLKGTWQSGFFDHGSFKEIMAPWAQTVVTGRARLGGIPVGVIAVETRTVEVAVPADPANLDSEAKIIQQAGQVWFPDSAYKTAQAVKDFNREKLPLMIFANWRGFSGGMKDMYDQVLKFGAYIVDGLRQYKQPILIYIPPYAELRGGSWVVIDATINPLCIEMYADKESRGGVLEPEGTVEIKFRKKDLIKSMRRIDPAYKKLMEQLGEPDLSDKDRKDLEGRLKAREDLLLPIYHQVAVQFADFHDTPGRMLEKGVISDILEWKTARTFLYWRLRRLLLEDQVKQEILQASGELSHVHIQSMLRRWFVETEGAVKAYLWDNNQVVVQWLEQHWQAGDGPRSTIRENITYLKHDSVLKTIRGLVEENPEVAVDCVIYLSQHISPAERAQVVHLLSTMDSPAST

For the experiment, the target named is human ACC2 (Homo sapiens (Human), UniProt O00763). The experiment is described as follows: ACC2 assay, spectrophotometric 384 well assay (NADH-linked, coupled lactate dehydrogenase/pyruvate kinase reaction). Format: biochemical. The following applies: hACC2 construct lacking the 128 N-terminal amino acids; 25° C., 340 nm over 15 minutes. As for the experimental part:
Spectrophotometric 384 Well Assay
Malonyl CoA formation by acetyl CoA carboxylases is stoichometrically linked to the consumption of ATP. ACC2 activity is measured in a NADH-linked kinetic method measuring ADP generated during the ACC reaction using a coupled lactate dehydrogenase/pyruvate kinase reaction.
For biological testing, a human ACC2 construct which lacks the 128 amino acids at the N-terminus for increased solubility (nt 385-6966 in Genbank entry AJ575592) is cloned. The protein is then expressed in insect cells using a baculoviral expression system. Protein purification is performed by anion exchange.
All compounds are dissolved in dimethyl sulfoxide (DMSO) to a concentration of 10 mM.
Assay reactions are then carried out in 384-well plates, with hACC2 in an appropriate dilution and at final assay concentrations (f.c.) of 100 mM Tris (pH 7.5), 10 mM trisodium citrate, 25 mM KHCO3, 10 mM MgCl2, 0.5 mg/mL BSA, 3.75 mM reduced L-glutathione, 15 U/mL lactate dehydrogenase, 0.5 mM phosphoenolpyruvate, 15 U/mL pyruvate kinase, compounds at different concentrations at final DMSO concentrations of 1%.
The enzymatic reaction is then started by addition of a mixture of NADH, acetyl Coenzyme A (both 200 μM f.c.) and ATP (500 uM f.c.). The decrease of the optical density (slope S) is then determined at 25° C. at a wavelength of 340 nm over 15 minutes in a spectrophotometric reader.
Each assay microtiter plate contains wells with vehicle instead of compound as controls for the non-inhibited enzyme (100% CTL; ‘HIGH’) and wells without acetyl-CoA as controls for non-specific NADH degradation (0% CTL; ‘LOW’).
The slope S is used for calculation of % CTL=(S(compound)−S(‘LOW’))/(S(‘HIGH’)−S(‘LOW’))*100. Compounds will give values between 100% CTL (no inhibition) and 0% CTL (complete inhibition).
For IC50 value determination, the sample slope in the presence of the test compound after subtraction of the low controls (S(compound)−S(‘LOW’)) are used. An IC50 value is derived from the compound slopes at different dosages after subtraction of the low controls (S(compound)−S(‘LOW’)) by non-linear regression curve fitting (equation y=(A+((B−A)/(1+((C/x)^D))))).
`CCOc1cc(C#Cc2ccc(C[C@H](C)NC(C)=O)cc2)ccn1` (stereo in doubt) [Example 23.1, N-{2-[4-(2-Ethoxy-pyridin-4-ylethynyl)-phenyl]-1-methyl-ethyl}-acetamide]: half-maximal inhibition (IC50) was put at 230 nM.

`CCC(C)Nc1ncc(C#Cc2ccc(CC(C)NC(C)=O)cc2)cn1` (stereo not shown) [15.1] displayed a half-maximal inhibitory concentration (IC50) of 160 nM.

Consider `CCOc1cc(C#Cc2ccc(CC(C)NC(C)=O)cc2)ncn1` (stereo not shown) [17.1], for which it took 1900 nM to reach half-maximal inhibition (IC50).

Consider `CCOc1ccc(C#Cc2ccc(CC(C)N3CC(C)(C)C3=O)cc2)cc1` (stereo not shown) [19.1], for which the IC50 came out at 1800 nM.

Turning to `CC(=O)NC(C)Cc1ccc(C#Cc2ccc(-c3ccccc3)cc2)cc1` (stereo not shown) [21.1], the IC50 was 130 nM.

Compound `COc1ccc(C#Cc2ccc(CC(C)NC(C)=O)cc2)cc1OC` (stereo not shown) [22.1] returned a 50% inhibitory concentration (IC50) of 1600 nM.

As to `CC(=O)NC(C)Cc1ccc(C#Cc2ccc(C(C)(C)C)cc2)cc1` (stereo not shown) [25.1], half-maximal inhibition (IC50) required 140 nM.

`CCOc1ccc(C#Cc2ccc(CCNC(C)=O)nc2)cc1` [26.1]: 7200 nM corresponded to half-maximal inhibition (IC50).

As for `C[C@H](NC(=O)C1CC1)c1ccc(I)cc1` [28.1], 24400 nM corresponded to half-maximal inhibition (IC50).

`CC(=O)NC(C)Cc1ccc(C#Cc2ccnc(N(C)C3CCCC3)n2)cc1` (stereo not shown) [30.1] yielded an IC50 of 330 nM.

In turn, `CC(Cc1ccc(C#Cc2cnc(OC3CCC3)nc2)cc1)NC(=O)c1cncs1` (stereo not shown) [34.1] showed a half-maximal inhibitory concentration (IC50) of 170 nM.

Regarding `CC(=O)NC(C)Cc1ccc(C#Cc2ccc(Cl)cc2)cc1` (stereo not shown) [Example 1.1, N-(1-(4-((4-Chlorophenyl)ethynyl)phenyl)propan-2-yl)acetamide], the IC50 is 530 nM.

Turning to `CC(=O)NC(C)Cc1ccc(C#Cc2ccc(C)cc2)cc1` (stereo not shown) [Example 1.2], the IC50 worked out at 810 nM.

As for `CC(=O)NC(C)Cc1ccc(C#Cc2ccc(-c3ccc(Cl)cc3)nn2)cc1` (stereo not shown) [Example 1.3], the IC50 came out at 690 nM.

With `CC(=O)NC(C)Cc1ccc(C#Cc2cccc3ccccc23)cc1` (stereo not shown) [Example 1.4], it took 2000 nM to reach half-maximal inhibition (IC50).

As for `CC(=O)NC(C)Cc1ccc(C#Cc2ccc(C(=O)O)cc2)cc1` (stereo not shown) [Example 1.5], it took 2400 nM to reach half-maximal inhibition (IC50).

In turn, `CC(=O)NC(C)Cc1ccc(C#Cc2ccc3ccccc3c2)cc1` (stereo not shown) [Example 1.6] displayed an IC50 of 880 nM.

Consider `CC(=O)NC(C)Cc1ccc(C#Cc2cccc(OC(F)F)c2)cc1` (stereo not shown) [Example 1.7], for which it took 4900 nM to reach half-maximal inhibition (IC50).

As to `CC(=O)NC(C)Cc1ccc(C#Cc2ccc(Oc3ccccc3)nc2)cc1` (stereo not shown) [Example 1.8], the IC50 was determined as 200 nM.

On to `CC(=O)NC(C)Cc1ccc(C#Cc2cccc(C(=O)N3CCN(C(C)C)CC3)c2)cc1` (stereo not shown) [Example 1.9], for which the IC50 came out at 8400 nM.

For the compound `CC(=O)NC(C)Cc1ccc(C#Cc2ccc(C(=O)N3CCOCC3)cc2)cc1` (stereo not shown) [Example 1.10], the IC50 is 5500 nM.

`CC(=O)NC(C)Cc1ccc(C#Cc2ccc(C(=O)NCC(F)(F)F)cc2)cc1` (stereo not shown) [Example 1.11] returned an IC50 of 1700 nM.

As for `CC(=O)NC(C)Cc1ccc(C#Cc2ccc(C(=O)NCc3ccccc3)cc2)cc1` (stereo not shown) [Example 1.12], inhibition was half-maximal at 2300 nM (IC50).

As to `COc1ccc(-c2cnc(C#Cc3ccc(CC(C)NC(C)=O)cc3)cn2)cc1` (stereo not shown) [Example 1.13], half-maximal inhibition (IC50) required 1100 nM.

In turn, `CC(=O)NC(C)Cc1ccc(C#Cc2cnc(-c3ccc(Cl)cc3)cn2)cc1` (stereo not shown) [Example 1.14] showed a concentration for half-maximal inhibition (IC50) of 200 nM.

For `CC(=O)NC(C)Cc1ccc(C#Cc2ccc(-c3ccc(F)cc3)cn2)cc1` (stereo not shown) [Example 1.16], the IC50 stood at 120 nM.

`CC(=O)NC(C)Cc1ccc(C#Cc2ccc(-c3ccc(C)cc3)cn2)cc1` (stereo not shown) [Example 1.17] yielded an IC50 of 390 nM.

Compound `CC(=O)NC(C)Cc1ccc(C#Cc2ccc(C(=O)N3CCCC3)c(C)c2)cc1` (stereo not shown) [Example 1.18] displayed an IC50 of 990 nM.

With `CC(=O)NC(C)Cc1ccc(C#Cc2ccc(N(C)C)cc2)cc1` (stereo not shown) [Example 1.19], half-maximal inhibition (IC50) was put at 1500 nM.

As to `CC(=O)NC(C)Cc1ccc(C#Cc2ccc(OC(C)C)cn2)cc1` (stereo not shown) [Example 1.20], half-maximal inhibition (IC50) was put at 610 nM.

Turning to `CCc1ccc(C#Cc2ccc(CC(C)NC(C)=O)cc2)cc1` (stereo not shown) [Example 1.21], inhibition was half-maximal at 400 nM (IC50).

With `CC(=O)NC(C)Cc1ccc(C#Cc2ccc(C(C)C)cc2)cc1` (stereo not shown) [Example 1.22], inhibition was half-maximal at 290 nM (IC50).

With `CC(=O)NC(C)Cc1ccc(C#Cc2cccc(C(C)=O)c2)cc1` (stereo not shown) [Example 1.23], the IC50 came out at 1000 nM.

The compound `CC(=O)NC(C)Cc1ccc(C#Cc2ccc(Br)cc2F)cc1` (stereo not shown) [Example 1.24] came in with a half-inhibitory concentration (IC50) of 1100 nM.

With `CC(=O)NC(C)Cc1ccc(C#Cc2ccc3c(ccn3CCO)c2)cc1` (stereo not shown) [Example 1.25], it took 5100 nM to reach half-maximal inhibition (IC50).

With `COc1ccc(C#Cc2ccc(CC(C)NC(C)=O)cc2)c(C)c1` (stereo not shown) [Example 1.26], the IC50 was found to be 320 nM.

Regarding `CC(=O)NC(C)Cc1ccc(C#Cc2cccc(OC(C)C)c2)cc1` (stereo not shown) [Example 1.27], it took 550 nM to reach half-maximal inhibition (IC50).

On to `CCOc1ccc(C#Cc2ccc(CC(C)NC(C)=O)cc2)cc1` (stereo not shown) [Example 1.28, N-{2-[4-(4-ethoxy-phenylethynyl)-phenyl]-1-methyl-ethyl}-acetamide], for which the IC50 was 120 nM.

`CC(=O)NC(C)Cc1ccc(C#Cc2ccc(OC(C)C)cc2)cc1` (stereo not shown) [Example 1.29] came in with an IC50 of 250 nM.

The compound `COc1ccc(C#Cc2ccc(C(C)NC(C)=O)cc2)c(C)c1` (stereo not shown) [Example 1.30] yielded an IC50 of 2100 nM.

As to `CC(Cc1ccc(C#Cc2ccc(-c3ccc(F)cc3)cn2)cc1)NC(=O)C1CC1` (stereo not shown) [Example 1.31], the IC50 stood at 450 nM.

In the case of `CC(=O)NC(C)Cc1ccc(C#Cc2cccc(C(=O)N3CCOCC3)c2)cc1` (stereo not shown) [Example 1.32], the IC50 was determined as 16900 nM.

`CC(=O)NC(C)Cc1ccc(C#Cc2ccc(-n3cccc3)cc2)cc1` (stereo not shown) [Example 2.1, N-(1-(4-((4-(1H-Pyrrol-1-yl)phenyl)ethynyl)phenyl)propan-2-yl)acetamide] had a concentration for half-maximal inhibition (IC50) of 460 nM.

Compound `CCOC(=O)c1cccc(C#Cc2ccc(CC(C)NC(C)=O)cc2)c1` (stereo not shown) [Example 2.2] registered an IC50 of 390 nM.

`CC(=O)NC(C)Cc1ccc(C#Cc2ccc(C(F)(F)F)cc2Cl)cc1` (stereo not shown) [Example 2.3] registered an IC50 of 1400 nM.

Take `CC(=O)NC(C)Cc1ccc(C#Cc2cccc3ncccc23)cc1` (stereo not shown) [Example 2.4]: the IC50 was found to be 3300 nM.

On to `CC(=O)NC(C)Cc1ccc(C#Cc2ccc(OCC3(N)CC3)c(C)c2)cc1` (stereo not shown) [Example 2.5], for which the half-maximal inhibitory concentration (IC50) came to 820 nM.

Compound `CC(=O)NC(C)Cc1ccc(C#Cc2ccc(N3CCCCC3=O)cc2)cc1` (stereo not shown) [Example 2.6] returned an IC50 of 1400 nM.

As for `CC(=O)NC(C)Cc1ccc(C#Cc2ccc(OC(F)F)cc2)cc1` (stereo not shown) [Example 2.7], 760 nM corresponded to half-maximal inhibition (IC50).

With `CC(=O)NC(C)Cc1ccc(C#Cc2ccc3c(c2)CCO3)cc1` (stereo not shown) [Example 2.8], the IC50 was 730 nM.

In turn, `COc1ncc(C#Cc2ccc(CC(C)NC(C)=O)cc2)c(OC)n1` (stereo not shown) [Example 2.9] had an IC50 of 1500 nM.

Consider `CC(=O)NC(C)Cc1ccc(C#Cc2ccc(OC(F)(F)F)cc2C#N)cc1` (stereo not shown) [Example 2.10], for which the IC50 stood at 7500 nM.

Consider `CC(=O)NC(C)Cc1ccc(C#Cc2ccc(C(C)(C)C)cc2C#N)cc1` (stereo not shown) [Example 2.11], for which the IC50 amounted to 270 nM.

The compound `CC(=O)NC(C)Cc1ccc(C#Cc2ccc(CN3CCCC3)cc2)cc1` (stereo not shown) [Example 2.12] gave a concentration for half-maximal inhibition (IC50) of 6700 nM.

Compound `COc1ncccc1C#Cc1ccc(CC(C)NC(C)=O)cc1` (stereo not shown) [Example 2.13] showed an IC50 of 5300 nM.

As for `CCCOc1cc(C#Cc2ccc(CC(C)NC(C)=O)cc2)ccn1` (stereo not shown) [Example 2.14], it took 130 nM to reach half-maximal inhibition (IC50).

`CC(=O)NC(C)Cc1ccc(C#Cc2ccc(Br)cc2)cc1` (stereo not shown) [Example 2.15] came in with an IC50 of 560 nM.

As for `CC(=O)NC(C)Cc1ccc(C#Cc2ccc(Oc3ccccc3)cc2)cc1` (stereo not shown) [Example 2.16], the IC50 was 120 nM.

`CC(=O)NC(C)Cc1ccc(C#Cc2ccc(OCC(C)C)cc2)cc1` (stereo not shown) [Example 2.17] came in with an IC50 of 110 nM.

For the compound `CC(=O)NC(C)Cc1ccc(C#Cc2ccc(CCO)cc2)cc1` (stereo not shown) [Example 2.18], inhibition was half-maximal at 2200 nM (IC50).

As to `CC(=O)NC(C)Cc1ccc(C#Cc2ccc(C(C)=O)cc2)cc1` (stereo not shown) [Example 2.19], half-maximal inhibition (IC50) was put at 3600 nM.

`CCCc1ccc(C#Cc2ccc(CC(C)NC(C)=O)cc2)cc1` (stereo not shown) [Example 2.20] had a half-inhibitory concentration (IC50) of 300 nM.

Turning to `CC(=O)NC(C)Cc1ccc(C#Cc2ccc(OC(C)C)nc2)cc1` (stereo not shown) [Example 2.21], the IC50 amounted to 240 nM.

The compound `COc1ccc(C#Cc2ccc(CC(C)NC(C)=O)cc2)cn1` (stereo not shown) [Example 2.22] returned an IC50 of 720 nM.

For `CC(=O)NC(C)Cc1ccc(C#Cc2ccc(OCC3CC3)nc2)cc1` (stereo not shown) [Example 2.23], the IC50 came to 320 nM.

For `COCCOc1ccc(C#Cc2ccc(CC(C)NC(C)=O)cc2)cn1` (stereo not shown) [Example 2.24], the IC50 is 760 nM.

Compound `CC(=O)NC(C)Cc1ccc(C#Cc2ccc(OC3CCCC3)nc2)cc1` (stereo not shown) [Example 2.25] showed an IC50 of 170 nM.
